For 24 compounds, inhibition and CC50 results are on record in patent US9540343B2 (Gilead Sciences, Inc., priority 2011, dated 2017).

Structures are written as SMILES.

One data set has as its system HIV-IIIb. The experiment in a line: Test A: Antiviral assay in MT4 cells. Type of data set: cell-based, HIV-1. To be noted: Human immunodeficiency virus 1, IIIB, MT4, 120 h, read-out: % inhibition at 2 μM, percent inhibition of virus-induced cell killing, from dose response curve at 2 uM drug; MT-4 cells infected with HIV-IIIb, 5 days, CellTiter-Glo. (In general: Cellular ATP, detected with luciferase, serves as a proxy for viable cell number.)

A short description of a further data set: in vitro. To be noted: human, uninfected MT-4 cells, CC50 (nM), same protocol as Test A, CellTiter-Glo. Here is the method: For the antiviral assay, 40 μL of 1× test concentration of 3-fold serially diluted compound in culture medium with 10% FBS was added to each well of a 384-well plate (10 concentrations) in quadruplicate. MT-4 cells were next mixed with HIV-IIIb at an m.o.i of 0.003 for 1 hour, after which time 35 μL of virus/cell mixture (2000 cells) was immediately added to each well containing 40 μL of diluted compound. The plates were then incubated at 37° C. for 5 days. After 5 days of incubation, 25 μl of 2× concentrated CellTiter-Glo™ Reagent (catalog #G7571, Promega Biosciences, Inc., Madison, Wis.) was added to each well containing MT-4 cells. Cell lysis was carried out by incubating at room temperature for 10 min and then chemiluminescence was read.
Test B: Cytotoxicity Assay
Compound cytotoxicity and the corresponding CC50 values was determined using the same protocol as described in the antiviral assay (Test A) except that uninfected cells were used.

As a reminder, the inhibition is the share of the control response that was lost under treatment. One may read the CC50 as the concentration that lowers cell viability or growth by half. Low values mean harm at low concentration, high ones better tolerance by the cells. Take `COc1ccc(-c2cccnc2[C@H](Cc2cc(F)cc(F)c2)NC(=O)Cc2c[nH]c3ccc(O)cc23)cc1` [Example 13G, (S)—N-(2-(3,5-difluorophenyl)-1-(3-(4-methoxyphenyl)pyridin-2-yl)ethyl)-2-(5-hydroxy-1H-indol-3-yl)acetamide]: the inhibition at 2 µM with HIV-IIIb was determined as 97%. Also, in the data set “in vitro”, the CC50 at 5 days came to 25600 nM.
In the case of `Cc1ccccc1-c1cccnc1[C@H](Cc1ccccc1)NC(=O)Cc1c[nH]c2ccc(O)cc12` [Example 14, (S)-2-(5-hydroxy-1H-indol-3-yl)-N-(2-phenyl-1-(3-o-tolylpyridin-2-yl)ethyl)acetamide], in the data set with HIV-IIIb, the inhibition at 2 µM amounted to 76%. In the data set “in vitro”, this compound showed a CC50 at 5 days of 25400 nM.
Turning to `Cc1ccccc1-c1cccnc1[C@@H](Cc1ccccc1)NC(=O)Cc1c[nH]c2ccc(O)cc12` [Example 15, (R)-2-(5-hydroxy-1H-indol-3-yl)-N-(2-phenyl-1-(3-o-tolylpyridin-2-yl)ethyl)acetamide], in the data set on HIV-IIIb, the inhibition at 2 µM worked out at 0%. In the data set “in vitro”, this compound registered a CC50 at 5 days of 28200 nM.
In the case of `Cc1ccccc1-c1cccnc1[C@@H](Cc1ccccc1)NC(=O)Cn1nc(C(F)(F)F)c2c1CCCC2` [Example 16, (R)—N-(2-phenyl-1-(3-o-tolylpyridin-2-yl)ethyl)-2-(3-(trifluoromethyl)-4,5,6,7-tetrahydro-1H-indazol-1-yl)acetamide], the inhibition at 2 µM with HIV-IIIb was 0%. Also, in “in vitro”, the CC50 at 5 days turned out to be 14000 nM.
With `Cc1ccccc1-c1cccnc1[C@H](Cc1ccccc1)NC(=O)Cn1nc(C(F)(F)F)c2c1CCCC2` [Example 17, (S)—N-(2-phenyl-1-(3-o-tolylpyridin-2-yl)ethyl)-2-(3-(trifluoromethyl)-4,5,6,7-tetrahydro-1H-indazol-1-yl)acetamide], the inhibition at 2 µM in the data set on HIV-IIIb was 70%. This compound returned a CC50 at 5 days in “in vitro” of 13800 nM.
Taken in the same sequence, the figures for `COc1ccc(-c2cccnc2[C@@H](Cc2ccccc2)NC(=O)Cn2nc(C(F)(F)F)c3c2CCCC3)c(C)c1` [Example 18, (R)—N-(1-(3-(4-methoxy-2-methylphenyl)pyridin-2-yl)-2-phenylethyl)-2-(3-(trifluoromethyl)-4,5,6,7-tetrahydro-1H-indazol-1-yl)acetamide] were 0% and 14600 nM.
On to `COc1ccc(-c2cccnc2[C@H](Cc2ccccc2)NC(=O)Cn2nc(C(F)(F)F)c3c2CCCC3)c(C)c1` [Example 19, (S)—N-(1-(3-(4-methoxy-2-methylphenyl)pyridin-2-yl)-2-phenylethyl)-2-(3-(trifluoromethyl)-4,5,6,7-tetrahydro-1H-indazol-1-yl)acetamide], for which, in the data set with HIV-IIIb, the inhibition at 2 µM worked out at 25%. Moreover, it took 14200 nM to reach half-maximal cytotoxicity in “in vitro” (CC50 at 5 days).
Regarding `COc1ccc(-c2cccnc2[C@H](Cc2ccccc2)NC(=O)Cc2c[nH]c3ccc(O)cc23)cc1` [Example 20, (S)-2-(5-hydroxy-1H-indol-3-yl)-N-(1-(3-(4-methoxyphenyl)pyridin-2-yl)-2-phenylethyl)acetamide], the inhibition at 2 µM in the data set on HIV-IIIb was found to be 84%. This compound showed a CC50 at 5 days in “in vitro” of 48300 nM.
Consider `COc1ccc(-c2cccnc2[C@H](Cc2ccccc2)NC(=O)Cn2nc(C(F)(F)F)c3c2CCCC3)cc1` [Example 21, (S)—N-(1-(3-(4-methoxyphenyl)pyridin-2-yl)-2-phenylethyl)-2-(3-(trifluoromethyl)-4,5,6,7-tetrahydro-1H-indazol-1-yl)acetamide], for which the inhibition at 2 µM with HIV-IIIb was 28%. The same compound showed a CC50 at 5 days in “in vitro” of 15500 nM.
The like results for `COc1ccc(-c2cccnc2[C@@H](Cc2ccccc2)NC(=O)Cc2c[nH]c3ccc(O)cc23)cc1` [Example 22, (R)-2-(5-hydroxy-1H-indol-3-yl)-N-(1-(3-(4-methoxyphenyl)pyridin-2-yl)-2-phenylethyl)acetamide] were, in that order, 0% and 45700 nM.
Turning to `COc1ccc(-c2cccnc2[C@@H](Cc2ccccc2)NC(=O)Cn2nc(C(F)(F)F)c3c2CCCC3)cc1` [Example 23, (R)—N-(1-(3-(4-methoxyphenyl)pyridin-2-yl)-2-phenylethyl)-2-(3-(trifluoromethyl)-4,5,6,7-tetrahydro-1H-indazol-1-yl)acetamide], in the data set with HIV-IIIb, the inhibition at 2 µM came out at 0%. The CC50 at 5 days in the data set “in vitro” amounted to 13800 nM.
The like results for `Cc1ccccc1-c1cccnc1[C@H](Cc1cccc(F)c1)NC(=O)Cc1c[nH]c2ccc(O)cc12` [Example 24, (S)—N-(2-(3-fluorophenyl)-1-(3-o-tolylpyridin-2-yl)ethyl)-2-(5-hydroxy-1H-indol-3-yl)acetamide] were, in that order, 39% and 24800 nM.
Taken in the same sequence, the figures for `Cc1ccccc1-c1cccnc1[C@H](Cc1cccc(F)c1)NC(=O)Cn1nc(C(F)(F)F)c2c1CCCC2` [Example 25, (S)—N-(2-(3-fluorophenyl)-1-(3-o-tolylpyridin-2-yl)ethyl)-2-(3-(trifluoromethyl)-4,5,6,7-tetrahydro-1H-indazol-1-yl)acetamide] were 71% and 11900 nM.
The like results for `Cc1ccccc1-c1cccnc1[C@H](Cc1cc(F)cc(F)c1)NC(=O)Cc1c[nH]c2ccc(O)cc12` [Example 26, (S)—N-(2-(3,5-difluorophenyl)-1-(3-o-tolylpyridin-2-yl)ethyl)-2-(5-hydroxy-1H-indol-3-yl)acetamide] were, in that order, 70% and 24500 nM.
For `Cc1ccccc1-c1cccnc1[C@H](Cc1cc(F)cc(F)c1)NC(=O)Cn1nc(C(F)(F)F)c2c1CCCC2` [Example 27, (S)—N-(2-(3,5-difluorophenyl)-1-(3-o-tolylpyridin-2-yl)ethyl)-2-(3-(trifluoromethyl)-4,5,6,7-tetrahydro-1H-indazol-1-yl)acetamide], the inhibition at 2 µM in the data set on HIV-IIIb came to 72%. Further, half-maximal cytotoxicity in the data set “in vitro” (CC50 at 5 days) was put at 12000 nM.
For `COc1ccc(-c2cccnc2[C@H](Cc2cccc(F)c2)NC(=O)Cc2c[nH]c3ccc(O)cc23)cc1` [Example 28, (S)—N-(2-(3-fluorophenyl)-1-(3-(4-methoxyphenyl)pyridin-2-yl)ethyl)-2-(5-hydroxy-1H-indol-3-yl)acetamide], the inhibition at 2 µM with HIV-IIIb amounted to 93%. The compound also gave a CC50 at 5 days in the data set “in vitro” of 26000 nM.
As for `COc1ccc(-c2cccnc2[C@H](Cc2cccc(F)c2)NC(=O)Cn2nc(C(F)(F)F)c3c2CCCC3)cc1` [Example 29, (S)—N-(2-(3-fluorophenyl)-1-(3-(4-methoxyphenyl)pyridin-2-yl)ethyl)-2-(3-(trifluoromethyl)-4,5,6,7-tetrahydro-1H-indazol-1-yl)acetamide], in the data set with HIV-IIIb, the inhibition at 2 µM was 36%. In “in vitro”, this compound registered a CC50 at 5 days of 13200 nM.
Take `COc1ccc(-c2cccnc2[C@H](Cc2cc(F)cc(F)c2)NC(=O)Cn2nc(C(F)(F)F)c3c2CCCC3)cc1` [Example 30, (S)—N-(2-(3,5-difluorophenyl)-1-(3-(4-methoxyphenyl)pyridin-2-yl)ethyl)-2-(3-(trifluoromethyl)-4,5,6,7-tetrahydro-1H-indazol-1-yl)acetamide]: the inhibition at 2 µM with HIV-IIIb turned out to be 76%. In the data set “in vitro”, this compound came in with a CC50 at 5 days of 11900 nM.
As to `O=C(Cc1c[nH]c2ccccc12)N[C@@H](Cc1cc(F)cc(F)c1)c1ncccc1-c1ccc(Cl)cc1` [Example 31, (S)—N-(1-(3-(4-chlorophenyl)pyridin-2-yl)-2-(3,5-difluorophenyl)ethyl)-2-(1H-indol-3-yl)acetamide], the inhibition at 2 µM in the data set with HIV-IIIb worked out at 34%. Also, the CC50 at 5 days in the data set “in vitro” came to 8630 nM.
As to `O=C(Cc1c[nH]c2ccc(F)cc12)N[C@@H](Cc1cc(F)cc(F)c1)c1ncccc1-c1ccc(Cl)cc1` [Example 33, (S)—N-(1-(3-(4-chlorophenyl)pyridin-2-yl)-2-(3,5-difluorophenyl)ethyl)-2-(5-fluoro-1H-indol-3-yl)acetamide], in the data set with HIV-IIIb, the inhibition at 2 µM is 75%. This compound also gave a CC50 at 5 days in “in vitro” of 9750 nM.
For the compound `COc1ccc(-c2cccnc2[C@H](Cc2cc(F)cc(F)c2)NC(=O)Cc2c[nH]c3cc(OC)c(OCc4ccccc4)cc23)cc1` [Example 34E, (S)-2-(5-(benzyloxy)-6-methoxy-1H-indol-3-yl)-N-(2-(3,5-difluorophenyl)-1-(3-(4-methoxyphenyl)pyridin-2-yl)ethyl)acetamide], the inhibition at 2 µM in the data set on HIV-IIIb is 0%. In the data set “in vitro”, this compound gave a CC50 at 5 days of 27800 nM.
For `COc1ccc(-c2cccnc2[C@H](Cc2cc(F)cc(F)c2)NC(=O)Cc2c[nH]c3ccc(NS(C)(=O)=O)cc23)cc1` [Example 35G, (S)—N-(2-(3,5-difluorophenyl)-1-(3-(4-methoxyphenyl)pyridin-2-yl)ethyl)-2-(5-(methylsulfonamido)-1H-indol-3-yl)acetamide], the inhibition at 2 µM in the data set on HIV-IIIb came to 49%. The same compound gave a CC50 at 5 days in the data set “in vitro” of 22400 nM.
Turning to `O=C(Cc1c[nH]c2ccc(=O)[nH]c12)N[C@@H](Cc1cc(F)cc(F)c1)c1ncccc1-c1ccc(Cl)cc1` [Example 37, (S)—N-(1-(3-(4-chlorophenyl)pyridin-2-yl)-2-(3,5-difluorophenyl)ethyl)-2-(5-oxo-4,5-dihydro-1H-pyrrolo[3,2-b]pyridin-3-yl)acetamide], the inhibition at 2 µM in the data set on HIV-IIIb worked out at 84%. Also, in the data set “in vitro”, the CC50 at 5 days was determined as 34200 nM.
Taken in the same sequence, the figures for `O=C(Cc1c[nH]c2ccc(O)cc12)N[C@@H](Cc1cc(F)cc(F)c1)c1ncccc1Br` [Example 38D, (S)—N-(1-(3-bromopyridin-2-yl)-2-(3,5-difluorophenyl)ethyl)-2-(5-hydroxy-1H-indol-3-yl)acetamide] were 3% and 42600 nM.
